In US10076519B2 (CYTOKINETICS, INC., priority 2010, dated 2018):

system: rabbit skeletal myofibrils (fast skeletal myofibrils); assay: Activation of fast skeletal myofibrils (PUMA assay, PK/LDH-coupled ATPase at pCa25); format: biochemical; conditions: AC1.4 determined according to the procedure of Example 39; reported as class symbols
Outline: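 Detergent-washed rabbit psoas myofibrils (~90% fast fibres, calcium-regulated) assayed at calcium giving 25% of maximal ATPase rate (pCa25). ADP turnover coupled via pyruvate kinase/lactate dehydrogenase to NADH oxidation, read at 340 nm. Buffer 12 mM PIPES, 2 mM MgCl2, 1 mM DTT, pH 6.8; AC1.4 values derived.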

| Structure (SMILES) | Mean AC1.4 |
| --- | --- |
| CC(C)(CNc1ccc(CNS(C)(=O)=O)nn1)c1ccc(F)cc1 [[(6-{[2-(4-fluorophenyl)-2-methylpropyl]amino}pyridazin-3-yl)methyl](methylsulfonyl)amine] | B (B=1-10 uM) |
| CCOC(=O)C1(NC(=O)c2ccc(NCC(C)(C)c3ccc(F)cc3)nn2)CC1 [ethyl 1-[(6-{[2-(4-fluorophenyl)-2-methylpropyl]amino}pyridazin-3-yl)carbonylamino]cyclopropane-carboxylate] | D (D=>20 uM) |
| CCOC(=O)c1cc(-c2ccc(NCC(C)(C)c3ccc(F)cc3)nn2)ccc1F [ethyl 2-fluoro-5-(6-{[2-(4-fluorophenyl)-2-methylpropyl]amino}pyridazin-3-yl)benzoate] | B (B=1-10 uM) |
| CCOC(=O)CCc1ccc(NCC(C)(C)c2ccc(F)cc2)nn1 [ethyl 3-(6-{[2-(4-fluorophenyl)-2-methylpropyl]amino}pyridazin-3-yl)propanoate] | D (D=>20 uM) |

same assay, conditions: median AC1.4 class, procedure of Example 39

| Structure (SMILES) | Mean AC1.4 |
| --- | --- |
| COc1cc(-c2ccc(NC3(c4ccc(F)cc4)CCC3)nn2)ccn1 [[(4-fluorophenyl)cyclobutyl][6-(2-methoxy(4-pyridyl))pyridazin-3-yl]amine] | B (B=1-10 uM) |
| Cc1cc(-c2ccc(NC3(c4ccc(F)cc4)CCC3)nn2)ccn1 [[(4-fluorophenyl)cyclobutyl][6-(2-methyl(4-pyridyl))pyridazin-3-yl]amine] | B (B=1-10 uM) |
| COc1cccc(-c2ccc(NC3(c4ccc(F)cc4)CCC3)nn2)n1 [[(4-fluorophenyl)cyclobutyl][6-(6-methoxy(2-pyridyl))pyridazin-3-yl]amine] | B (B=1-10 uM) |
| Fc1ccc(C2(Nc3ccc(-c4cccnc4OCC(F)(F)F)nn3)CCC2)cc1 [[(4-fluorophenyl)cyclobutyl]{6-[2-(2,2,2-trifluoroethoxy)(3-pyridyl)]pyridazin-3-yl}amine] | B (B=1-10 uM) |
| NC(=O)NCc1cnc(-c2ccc(NCC3(c4ncccc4F)CCC3)nn2)s1 [amino-N-({2-[6-({[(3-fluoro(2-pyridyl))cyclobutyl]methyl}ami-no)pyridazin-3-yl](1,3-thiazol-5-yl)}methyl)amide] | A (A=<1 uM) |
| NC(=S)c1cnc(-c2ccc(NCC3(c4ncccc4F)CCC3)nn2)s1 [amino{2-[6-({[(3-fluoro(2-pyridyl))cyclobutyl]methyl}ami-no)pyridazin-3-yl](1,3-thiazol-5-yl)}methane-1-thione] | A (A=<1 uM) |
| NS(=O)(=O)Nc1ccc(F)c(-c2ccc(NCC3(c4ncccc4F)CCC3)nn2)c1 [amino{4-fluoro-3-[6-({[(3-fluoro(2-pyridyl))cyclobutyl]methyl}ami-no)pyridazin-3-yl]phenyl}sulfonamide] | A (A=<1 uM) |
| CCOC(=O)c1sc(-c2ccc(NCC3(c4ncccc4F)CCC3)nn2)nc1O [ethyl 2-[6-({[(3-fluoro(2-pyridyl))cyclobutyl]methyl}ami-no)pyridazin-3-yl]-4-hydroxy-1,3-thiazole-5-carboxylate] | D (D=>20 uM) |
| CCOC(=O)c1cc(-c2ccc(NC[C@]3(c4ncccc4F)C[C@H](F)C3)nn2)ccc1F [ethyl 2-fluoro-5-[6-({[3-fluoro-1-(3-fluoro(2-pyridyl))cyclobutyl]methyl}ami-no)pyridazin-3-yl]benzoate] | C (C=10-20 uM) |
| CCOC(=O)c1c(-c2ccc(NCC3(c4ncccc4F)CCC3)nn2)n[nH]c1O [ethyl 3-[6-({[(3-fluoro(2-pyridyl))cyclobutyl]methyl}ami-no)pyridazin-3-yl]-5-hydroxypyrazole-4-carboxylate] | D (D=>20 uM) |

same assay, conditions: median AC1.4 reported as class; procedure of Example 39

| Structure (SMILES) | Mean AC1.4 |
| --- | --- |
| CC(C)[C@H](N)C(=O)N[C@H](C(=O)OCC(=O)NCc1cnc(-c2ccc(NCC3(c4ncccc4F)CCC3)nn2)s1)C(C)C [[N-({2-[6-({[(3-fluoro-2-pyridyl)cyclobutyl]methyl}ami-no)pyridazin-3-yl]-1,3-thiazol-5-yl}methyl)carbamoyl]methyl (2S)-2-((2S)-2-amino-3-methylbutanoylamino)-3-methylbutanoate] | A (A=<1 uM) |
| C[C@H](N)C(=O)N[C@@H](C)C(=O)OCC(=O)NCc1cnc(-c2ccc(NCC3(c4ncccc4F)CCC3)nn2)s1 [[N-({2-[6-({[(3-fluoro-2-pyridyl)cyclobutyl]methyl}ami-no)pyridazin-3-yl]-1,3-thiazol-5-yl}methyl)carbamoyl]methyl (2S)-2-((2S)-2-aminopropanoylamino)propanoate] | A (A=<1 uM) |
| CC(C)[C@H](N)C(=O)OCC(=O)NCc1cnc(-c2ccc(NCC3(c4ncccc4F)CCC3)nn2)s1 [[N-({2-[6-({[(3-fluoro-2-pyridyl)cyclobutyl]methyl}ami-no)pyridazin-3-yl]-1,3-thiazol-5-yl}methyl)carbamoyl]methyl (2S)-2-amino-3-methylbutanoate] | A (A=<1 uM) |
| C[C@H](N)C(=O)OCC(=O)NCc1cnc(-c2ccc(NCC3(c4ncccc4F)CCC3)nn2)s1 [[N-({2-[6-({[(3-fluoro-2-pyridyl)cyclobutyl]methyl}ami-no)pyridazin-3-yl]-1,3-thiazol-5-yl}methyl)carbamoyl]methyl (2S)-2-aminopropanoate] | A (A=<1 uM) |
| NC(=O)NC1CCc2nc(-c3ccc(NCC4(c5ncccc5F)CCC4)nn3)sc2C1 (stereo not shown) [amino-N-{2-[6-({[(3-fluoro(2-pyridyl))cyclobutyl]methyl}ami-no)pyridazin-3-yl](4,5,6,7-tetrahydrobenzothiazol-6-yl)}amide] | D (D=>20 uM) |
| CCOC(=O)Cc1csc(NC(=O)c2ccc(NCC3(c4ncccc4F)CCC3)nn2)n1 [ethyl 2-(2-{[6-({[(3-fluoro-2-pyridyl)cyclobutyl]methyl}ami-no)pyridazin-3-yl]carbonylamino}-1,3-thiazol-4-yl)acetate] | A (A=<1 uM) |
| CCOC(=O)Cc1nnc(NC(=O)c2ccc(NCC3(c4ncccc4F)CCC3)nn2)s1 [ethyl 2-(5-{[6-({[(3-fluoro-2-pyridyl)cyclobutyl]methyl}ami-no)pyridazin-3-yl]carbonylamino}-1,3,4-thiadiazol-2-yl)acetate] | D (D=>20 uM) |
| CCOC(=O)Cc1csc(-c2ccc(NCC3(c4ncccc4F)CCC3)nn2)n1 [ethyl 2-{2-[6-({[(3-fluoro-2-pyridyl)cyclobutyl]methyl}ami-no)pyridazin-3-yl]-1,3-thiazol-4-yl}acetate] | C (C=10-20 uM) |
| CCOC(=O)c1coc(NC(=O)c2ccc(NCC3(c4ncccc4F)CCC3)nn2)n1 [ethyl 2-{[6-({[(3-fluoro-2-pyridyl)cyclobutyl]methyl}ami-no)pyridazin-3-yl]carbonylamino}-1,3-oxazole-4-carboxylate] | D (D=>20 uM) |
| CCOC(=O)c1cnc(NC(=O)c2ccc(NCC3(c4ncccc4F)CCC3)nn2)s1 [ethyl 2-{[6-({[(3-fluoro-2-pyridyl)cyclobutyl]methyl}ami-no)pyridazin-3-yl]carbonylamino}-1,3-thiazole-5-carboxylate] | D (D=>20 uM) |
| CCOC(=O)c1nc(NC(=O)c2ccc(NCC3(c4ncccc4F)CCC3)nn2)cn1C [ethyl 4-{[6-({[(3-fluoro(2-pyridyl))cyclobutyl]methyl}ami-no)pyridazin-3-yl]carbonylamino}-1-methylimidazole-2-carboxylate] | D (D=>20 uM) |
